This is an account of results in patent publication US11566057B2, “Long-acting co-agonists of the glucagon and GLP-1 receptors” (Merck Sharp & Dohme Corp., priority 2017, dated 2023).

Like-named read-outs stand apart in the source and are kept apart here. Numbered stars: 1 amine (or outer) side, 2 acyl side, 3 side chain; on linkers, the order of the positions; unused ones are H or OH. Square brackets hold non-standard residues; d marks the D form. Side chains are listed from the residue outwards. Peptide text beside a SMILES is read from it. * marks the point of attachment. C20 diacid = O=C(O)CCCCCCCCCCCCCCCCCCC(=O)*; Phe(4-CH2NH2) = NCc1ccc(C[C@H](N)C(=O)O)cc1; C18 diacid = O=C(O)CCCCCCCCCCCCCCCCC(=O)*; C16 diacid = O=C(O)CCCCCCCCCCCCCCC(=O)*; γGlu = O=C(O)[C@H](CCC(=O)[*:2])N[*:1]; Met(O2) = CS(=O)(=O)CC[C@H](N)C(=O)O; αMeD = C[C@](N)(CC(=O)O)C(=O)O; αMeS = C[C@](N)(CO)C(=O)O; AEEA = NCCOCCOCC(=O)O; Aib = CC(C)(N)C(=O)O

One test concerns the target T1, human GCGR (Homo sapiens, UniProt P47871).
T1 construct: expressed in transfected cells; growth medium holds Blasticidin and Hygromycin
Kind of test: cAMP activity assay at the Glucagon receptor (GCGR). Format: cell-based. As to conditions: for hGCGR/hGLP1R (hTone): ratio of GCGR EC50 to GLP1R EC50. The method, boiled down: (§1)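 Peptides serially diluted from DMSO (10 points) and added to frozen-stock cells bearing human GLP1R (10,000 cells/well) or GCGR (30,000 cells/well), 1 h at RT, dark. EC50 by four-parameter logistic fit of HitHunter cAMPXS luminescence, read following overnight RT incubation.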

The target in a further test is T2, human GLP1R (Homo sapiens, UniProt P43220).
T2 construct: expressed in transfected cells; growth medium holds Blasticidin and Hygromycin
Description: cAMP activity assay at the GLP-1 receptor (GLP1R). It counts as cell-based. The method, boiled down:
as §1

The mark [1] stands for this setting: summary statement: EC50 at each of the glucagon and GLP-1 receptors, read-out: EC50 at the glucagon receptor.
The mark [2] stands for this setting: summary statement: EC50 at each of the glucagon and GLP-1 receptors, read-out: EC50 at the GLP-1 receptor.
Setting [3] is: cells expressing human GLP1R, cAMP production, buffer with or without 20% human serum (not stated which), read-out: GLP1R EC50 human.

T2 sequence (P43220 24-463): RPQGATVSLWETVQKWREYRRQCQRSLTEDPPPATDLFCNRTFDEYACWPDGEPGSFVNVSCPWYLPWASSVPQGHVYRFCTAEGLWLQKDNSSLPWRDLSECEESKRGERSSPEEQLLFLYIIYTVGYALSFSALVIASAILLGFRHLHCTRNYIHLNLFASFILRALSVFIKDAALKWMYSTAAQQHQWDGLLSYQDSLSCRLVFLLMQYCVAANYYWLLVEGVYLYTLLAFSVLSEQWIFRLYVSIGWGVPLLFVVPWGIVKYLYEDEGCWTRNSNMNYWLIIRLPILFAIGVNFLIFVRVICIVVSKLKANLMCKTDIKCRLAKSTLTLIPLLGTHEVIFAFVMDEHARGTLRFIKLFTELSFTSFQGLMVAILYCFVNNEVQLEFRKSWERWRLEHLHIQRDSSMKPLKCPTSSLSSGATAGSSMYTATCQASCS
T1 sequence (P47871 26-477): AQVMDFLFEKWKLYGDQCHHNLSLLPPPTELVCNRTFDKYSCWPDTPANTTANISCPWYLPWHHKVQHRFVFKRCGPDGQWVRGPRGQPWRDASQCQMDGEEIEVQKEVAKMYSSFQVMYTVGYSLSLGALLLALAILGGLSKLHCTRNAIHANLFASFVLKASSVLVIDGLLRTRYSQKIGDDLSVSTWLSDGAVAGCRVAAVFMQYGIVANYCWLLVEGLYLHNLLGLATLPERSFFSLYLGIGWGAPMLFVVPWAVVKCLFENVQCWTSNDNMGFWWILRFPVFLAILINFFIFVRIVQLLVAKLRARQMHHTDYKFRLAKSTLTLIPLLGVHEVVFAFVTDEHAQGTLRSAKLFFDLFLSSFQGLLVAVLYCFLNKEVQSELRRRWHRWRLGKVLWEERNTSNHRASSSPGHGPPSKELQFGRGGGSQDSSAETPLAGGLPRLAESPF

In the case of `CC(C)C[C@H](NC(=O)[C@H](Cc1c[nH]c2ccccc12)NC(=O)[C@H](CCCCNC(=O)COCCOCCNC(=O)COCCOCCNC(=O)CC[C@H](NC(=O)CCCCCCCCCCCCCCC(=O)O)C(=O)O)NC(=O)[C@@H](NC(=O)[C@H](Cc1ccccc1)NC(=O)[C@H](CC(=O)O)NC(=O)[C@H](CCC(N)=O)NC(=O)[C@H](C)NC(=O)[C@H](C)NC(=O)[C@H](CCCNC(=N)N)NC(=O)C(C)(C)NC(=O)[C@H](CC(=O)O)NC(=O)[C@H](CC(C)C)NC(=O)[C@H](Cc1ccc(O)cc1)NC(=O)[C@H](CCCCN)NC(=O)[C@H](CO)NC(=O)[C@H](Cc1ccc(O)cc1)NC(=O)[C@H](CC(=O)O)NC(=O)[C@H](CO)NC(=O)[C@@H](NC(=O)[C@H](Cc1ccccc1)NC(=O)[C@@H](NC(=O)CNC(=O)[C@H](CCC(N)=O)NC(=O)C(C)(C)NC(=O)[C@@H](N)Cc1c[nH]cn1)[C@@H](C)O)[C@@H](C)O)C(C)C)C(=O)N[C@@H](CCS(C)(=O)=O)C(=O)N[C@@H](CCC(=O)N[C@H](C(N)=O)[C@@H](C)O)C(=O)O` [TP828] (H-H[Aib]QGTFTSDYSKYLD[Aib]RAAQDFVK([AEEA-AEEA-γGlu-C16 diacid])WL[Met(O2)][γGlu]T-NH2), at human GCGR, the “hGCGR/hGLP1R (hTone)” value was determined as 0.4. The EC50 on human GCGR (setting [1]) and on human GLP1R (setting [2]) was below 5 nM each time.

As to `CC(C)C[C@H](NC(=O)[C@H](Cc1ccc(O)cc1)NC(=O)[C@H](CCCCN)NC(=O)[C@H](CO)NC(=O)[C@H](Cc1ccc(O)cc1)NC(=O)[C@H](CC(=O)O)NC(=O)[C@H](CO)NC(=O)[C@@H](NC(=O)[C@H](Cc1ccccc1)NC(=O)[C@@H](NC(=O)CNC(=O)[C@H](CCC(N)=O)NC(=O)C(C)(C)NC(=O)[C@@H](N)Cc1c[nH]cn1)[C@@H](C)O)[C@@H](C)O)C(=O)N[C@@H](CC(=O)O)C(=O)N[C@@H](C)C(=O)N[C@@H](CCCNC(=N)N)C(=O)N[C@@H](C)C(=O)N[C@@H](C)C(=O)N[C@@H](CCC(N)=O)C(=O)N[C@@H](CC(=O)O)C(=O)N[C@@H](Cc1ccccc1)C(=O)N[C@H](C(=O)N[C@@H](Cc1ccc(CNC(=O)COCCOCCNC(=O)COCCOCCNC(=O)CC[C@H](NC(=O)CCCCCCCCCCCCCCCCCCC(=O)O)C(=O)O)cc1)C(=O)N[C@@H](Cc1c[nH]c2ccccc12)C(=O)N[C@@H](CC(C)C)C(=O)N[C@@H](CC(C)C)C(=O)N[C@@H](CC(=O)O)C(=O)N[C@H](C(N)=O)[C@@H](C)O)C(C)C` [TP584] (H-H[Aib]QGTFTSDYSKYLDARAAQDFV[Phe(4-CH2NH2)]([AEEA-AEEA-γGlu-C20 diacid])WLLDT-NH2), the “hGCGR/hGLP1R (hTone)” value on human GCGR is 4.6. Besides, the 50% effective concentration (EC50) at human GCGR (setting [1]) and at human GLP1R (setting [2]) was below 5 nM in each case.

As to `CC(C)C[C@H](NC(=O)[C@H](Cc1ccc(O)cc1)NC(=O)[C@H](CCCCN)NC(=O)[C@H](CO)NC(=O)[C@H](Cc1ccc(O)cc1)NC(=O)[C@H](CC(=O)O)NC(=O)[C@H](CO)NC(=O)[C@@H](NC(=O)[C@H](Cc1ccccc1)NC(=O)[C@@H](NC(=O)CNC(=O)[C@H](CCC(N)=O)NC(=O)C(C)(C)NC(=O)[C@@H](N)Cc1c[nH]cn1)[C@@H](C)O)[C@@H](C)O)C(=O)N[C@@H](CC(=O)O)C(=O)N[C@@H](C)C(=O)N[C@@H](CCCNC(=N)N)C(=O)N[C@@H](C)C(=O)N[C@@H](C)C(=O)N[C@@H](CCCCNC(=O)COCCOCCNC(=O)COCCOCCNC(=O)CC[C@H](NC(=O)CCCCCCCCCCCCCCCCC(=O)O)C(=O)O)C(=O)N[C@@H](CCC(=O)O)C(=O)N[C@@H](Cc1ccccc1)C(=O)N[C@H](C(=O)N[C@@H](CCC(N)=O)C(=O)N[C@@H](Cc1c[nH]c2ccccc12)C(=O)N[C@@H](CC(C)C)C(=O)N[C@@H](CCS(C)(=O)=O)C(=O)N[C@@H](CC(=O)O)C(=O)N[C@H](C(N)=O)[C@@H](C)O)C(C)C` [TP704] (H-H[Aib]QGTFTSDYSKYLDARAAK([AEEA-AEEA-γGlu-C18 diacid])EFVQWL[Met(O2)]DT-NH2; N-terminus assumed), the EC50 at human GCGR (cells expressing human GCGR, cAMP production, buffer with or without 20% human serum (not stated which), read-out: GCGR EC50 human) is 0.27 nM; at human GCGR (setting [1]) it was below 5 nM; at human GLP1R (setting [2]) it was below 5 nM. Further, the “hGCGR/hGLP1R (hTone)” value on human GCGR was 0.7.

As to `CC(C)C[C@H](NC(=O)[C@H](Cc1ccc(O)cc1)NC(=O)[C@H](CCCCN)NC(=O)[C@H](CO)NC(=O)[C@H](Cc1ccc(O)cc1)NC(=O)[C@H](CC(=O)O)NC(=O)[C@H](CO)NC(=O)[C@@H](NC(=O)[C@H](Cc1ccccc1)NC(=O)[C@@H](NC(=O)CNC(=O)[C@H](CCC(N)=O)NC(=O)[C@](C)(CO)NC(=O)[C@@H](N)Cc1c[nH]cn1)[C@@H](C)O)[C@@H](C)O)C(=O)N[C@@H](CC(=O)O)C(=O)N[C@@H](C)C(=O)N[C@@H](CCCNC(=N)N)C(=O)N[C@@H](C)C(=O)N[C@@H](C)C(=O)N[C@@H](CCCCNC(=O)COCCOCCNC(=O)COCCOCCNC(=O)CC[C@H](NC(=O)CCCCCCCCCCCCCCCCC(=O)O)C(=O)O)C(=O)N[C@@H](CC(=O)O)C(=O)N[C@@H](Cc1ccccc1)C(=O)N[C@H](C(=O)N[C@@H](CCC(N)=O)C(=O)N[C@@H](Cc1c[nH]c2ccccc12)C(=O)N[C@@H](CC(C)C)C(=O)N[C@@H](CCS(C)(=O)=O)C(=O)N[C@@](C)(CC(=O)O)C(=O)N[C@H](C(N)=O)[C@@H](C)O)C(C)C` [TP616] (H-H[αMeS]QGTFTSDYSKYLDARAAK([AEEA-AEEA-γGlu-C18 diacid])DFVQWL[Met(O2)][αMeD]T-NH2; N-terminus assumed), the “hGCGR/hGLP1R (hTone)” value at human GCGR amounted to 0.7. For the same compound, the concentration for a half-maximal effect (EC50) at human GCGR (setting [1]) and on human GLP1R (setting [2]) was below 5 nM each time.

Turning to `CC(C)C[C@H](NC(=O)[C@H](Cc1ccc(O)cc1)NC(=O)[C@H](CCCCN)NC(=O)[C@H](CO)NC(=O)[C@H](Cc1ccc(O)cc1)NC(=O)[C@H](CC(=O)O)NC(=O)[C@H](CO)NC(=O)[C@@H](NC(=O)[C@H](Cc1ccccc1)NC(=O)[C@@H](NC(=O)CNC(=O)[C@H](CCC(N)=O)NC(=O)C(C)(C)NC(=O)[C@@H](N)Cc1c[nH]cn1)[C@@H](C)O)[C@@H](C)O)C(=O)N[C@@H](CC(=O)O)C(=O)N[C@@H](C)C(=O)N[C@@H](CCCNC(=N)N)C(=O)N[C@@H](C)C(=O)N[C@@H](C)C(=O)N[C@@H](CCCCNC(=O)COCCOCCNC(=O)COCCOCCNC(=O)COCCOCCNC(=O)CC[C@H](NC(=O)CCCCCCCCCCCCCCCCC(=O)O)C(=O)O)C(=O)N[C@@H](CC(=O)O)C(=O)N[C@@H](Cc1ccccc1)C(=O)N[C@H](C(=O)N[C@@H](CCC(N)=O)C(=O)N[C@@H](Cc1c[nH]c2ccccc12)C(=O)N[C@@H](CC(C)C)C(=O)N[C@@H](CCS(C)(=O)=O)C(=O)N[C@@](C)(CC(=O)O)C(=O)N[C@H](C(N)=O)[C@@H](C)O)C(C)C` [TP677] (H-H[Aib]QGTFTSDYSKYLDARAAK([AEEA-AEEA-AEEA-γGlu-C18 diacid])DFVQWL[Met(O2)][αMeD]T-NH2; N-terminus assumed), the “hGCGR/hGLP1R (hTone)” value at human GCGR came out at 1.9. Moreover, the EC50 at human GCGR (setting [1]) is below 5 nM; at human GLP1R (setting [3]) it was 0.76 nM; at human GLP1R (setting [2]) it was below 5 nM.

Regarding `CC(C)C[C@H](NC(=O)[C@H](C)NC(=O)[C@H](CC(=O)O)NC(=O)[C@H](CC(C)C)NC(=O)[C@H](Cc1ccc(O)cc1)NC(=O)[C@H](CCCCN)NC(=O)[C@H](CO)NC(=O)[C@H](Cc1ccc(O)cc1)NC(=O)[C@H](CC(=O)O)NC(=O)[C@H](CO)NC(=O)[C@@H](NC(=O)[C@H](Cc1ccccc1)NC(=O)[C@@H](NC(=O)CNC(=O)[C@H](CCC(N)=O)NC(=O)C(C)(C)NC(=O)[C@@H](N)Cc1c[nH]cn1)[C@@H](C)O)[C@@H](C)O)C(=O)N[C@@H](C)C(=O)N[C@@H](C)C(=O)N[C@@H](CCCCNC(=O)COCCOCCNC(=O)COCCOCCNC(=O)CC[C@H](NC(=O)CCCCCCCCCCCCCCCCC(=O)O)C(=O)O)C(=O)N[C@@H](CC(=O)O)C(=O)N[C@@H](Cc1ccccc1)C(=O)N[C@H](C(=O)N[C@@H](CCC(N)=O)C(=O)N[C@@H](Cc1c[nH]c2ccccc12)C(=O)N[C@@H](CC(C)C)C(=O)N[C@@H](CCS(C)(=O)=O)C(=O)N[C@@H](CC(=O)O)C(=O)N[C@H](C(N)=O)[C@@H](C)O)C(C)C` [TP599] (H-H[Aib]QGTFTSDYSKYLDALAAK([AEEA-AEEA-γGlu-C18 diacid])DFVQWL[Met(O2)]DT-NH2; N-terminus assumed), the “hGCGR/hGLP1R (hTone)” value on human GCGR is 1.6. Besides, the EC50 at human GCGR (setting [1]) and at human GLP1R (setting [2]) was below 5 nM each time.

`CC(C)C[C@H](NC(=O)[C@H](Cc1ccc(O)cc1)NC(=O)[C@H](CCCCN)NC(=O)[C@H](CO)NC(=O)[C@H](Cc1ccc(O)cc1)NC(=O)[C@H](CC(=O)O)NC(=O)[C@H](CO)NC(=O)[C@@H](NC(=O)[C@H](Cc1ccccc1)NC(=O)[C@@H](NC(=O)CNC(=O)[C@H](CCC(N)=O)NC(=O)C(C)(C)NC(=O)[C@@H](N)Cc1c[nH]cn1)[C@@H](C)O)[C@@H](C)O)C(=O)N[C@@H](CC(=O)O)C(=O)N[C@@H](CCC(=O)O)C(=O)N[C@@H](CCCNC(=N)N)C(=O)N[C@@H](C)C(=O)N[C@@H](C)C(=O)N[C@@H](Cc1ccc(CNC(=O)COCCOCCNC(=O)COCCOCCNC(=O)CC[C@H](NC(=O)CCCCCCCCCCCCCCCCC(=O)O)C(=O)O)cc1)C(=O)N[C@@H](CC(=O)O)C(=O)N[C@@H](Cc1ccccc1)C(=O)N[C@H](C(=O)N[C@@H](CCC(N)=O)C(=O)N[C@@H](Cc1c[nH]c2ccccc12)C(=O)N[C@@H](CC(C)C)C(=O)N[C@@H](CC(C)C)C(=O)N[C@@H](CCCCN)C(=O)N[C@H](C(N)=O)[C@@H](C)O)C(C)C` [TP587] (H-H[Aib]QGTFTSDYSKYLDERAA[Phe(4-CH2NH2)]([AEEA-AEEA-γGlu-C18 diacid])DFVQWLLKT-NH2; N-terminus assumed): the “hGCGR/hGLP1R (hTone)” value on human GCGR was above 4.1. In addition, the concentration giving a half-maximal response (EC50) was below 5 nM at human GCGR (setting [1]), 0.41 nM at human GLP1R (setting [3]) and below 5 nM on human GLP1R (setting [2]).
